“And” between values parts separate entries of the source, which are not always exact repeats. Equal values may be shown once. “Also recorded” adds a separate entry of the source. Starred links: 1 amine or outer side, 2 acyl side, 3 side chain; linkers in the order of their positions; H or OH if unused. Non-standard residues stand in square brackets, D forms with d. No end group written: not given here. gPNA = guanine base linked to N-(2-aminoethyl)-glycine backbone, Nc1nc2c(ncn2CC(=O)N(CCN[*:1])CC(=O)[*:2])c(=O)[nH]1; tPNA = thymine base linked to N-(2-aminoethyl)-glycine backbone, Cc1cn(CC(=O)N(CCN[*:1])CC(=O)[*:2])c(=O)[nH]c1=O; cPNA = cytosine base linked to N-(2-aminoethyl)-glycine backbone, Nc1ccn(CC(=O)N(CCN[*:1])CC(=O)[*:2])c(=O)n1; aPNA = adenine base linked to N-(2-aminoethyl)-glycine backbone, Nc1ncnc2c1ncn2CC(=O)N(CCN[*:1])CC(=O)[*:2]; hArg = N=C(N)NCCCC[C@H](N)C(=O)O; Orn = NCCC[C@H](N)C(=O)O; Dap = NC[C@H](N)C(=O)O; ∗∗ = not defined here

The first test concerns the target MJDCAG78 RNA. As to the kind of experiment: Isothermal titration calorimetry binding assay, expanded MJDCAG78 RNA. The note with it: ITC at 25° C.; 0.7 mM peptide titrated into 0.5 μM MJDCAG78 RNA; one binding site model; mean ± S.E.M. The method, then: Experiments were carried out using a MicroCal iTC200 isothermal titration calorimeter (GE Healthcare) at 25° C. Data were analyzed using the Origin® scientific plotting software version 7 (Microcal Software Inc.). All RNAs and peptides were dissolved in binding buffer (20 mM MOPS, pH 7.0; 300 mM NaCl) and 0.7 mM of peptide was titrated into 0.5 μM of RNA for each experiment. The concentration of RNA was estimated with appropriate extinction coefficients at 260 nm on a Nanodrop 2000 (Thermo Scientific). A reference power of 8 μcal/s was used with an initial 0.5 μl of injection of peptide followed by 2 μl for all subsequent titrations points with a 60 sec initial equilibrium delay and 150 sec pause between injections. The samples were stirred at a speed of 1000 rpm throughout the experiment. The thermal titration data were fitted to the ‘one binding site model’ to determine the dissociation constant (KD). Each experiment was repeated at least 3 times with consistent results obtained.
For DGKSKGIAYIEFA [P3MT5], the equilibrium dissociation constant (Kd) was 51 µM and 51.3 µM.
“Hi-cPNA-**-Lys-Ser-Lys-Gly-Ile-Ala-Tyr-Ile-Glu-Phe-Lys-NH2 (H-[cPNA][∗∗]KSKGIAYIEFK-NH2; not fully specified; printed as Hi-cPNA-**-Lys-Ser-Lys-Gly-Ile-Ala-Tyr-Ile-Glu-Phe-Lys-NH2; reading uncertain; also: N-terminal amino group replaced by hydrogen) [P3V24]” had a Kd of 0.96 µM.
Consider “Ac-Asp-Gly-Lys-Ser-(Orn)-Gly-Ile-Ala-Tyr-Ile-Glu-Phe-Lys-NH2 (Ac-DGKS[Orn]GIAYIEFK-NH2) [P3V17]”, for which the KD entry is listed as “No binding”.
For the substance “Ac-Asp-Gly-(Dap)-Ser-Lys-Gly-Ile-Ala-Tyr-Ile-Glu-Phe-Lys-NH2 (Ac-DG[Dap]SKGIAYIEFK-NH2; SMILES CC[C@H](C)[C@H](NC(=O)CNC(=O)[C@H](CCCCN)NC(=O)[C@H](CO)NC(=O)[C@H](CN)NC(=O)CNC(=O)[C@H](CC(=O)O)NC(C)=O)C(=O)N[C@@H](C)C(=O)N[C@@H](Cc1ccc(O)cc1)C(=O)N[C@H](C(=O)N[C@@H](CCC(=O)O)C(=O)N[C@@H](Cc1ccccc1)C(=O)N[C@@H](CCCCN)C(N)=O)[C@@H](C)CC) [P3V18]”, the KD result was “No binding”.
Take DGKSKGIAYIEFK [P3V7]: binding was characterised by a dissociation constant (Kd) of 3.67 ± 0.26 µM.
In the case of DGRSRGIAYIEFR [P3V6], the Kd is 23 µM and 23.3 µM.
As to “Ac-Asp-Gly-Lys-Ser-(hArg)-Gly-Ile-Ala-Tyr-Ile-Glu-Phe-Lys-NH2 (Ac-DGKS[hArg]GIAYIEFK-NH2; SMILES CC[C@H](C)[C@H](NC(=O)CNC(=O)[C@H](CCCCNC(=N)N)NC(=O)[C@H](CO)NC(=O)[C@H](CCCCN)NC(=O)CNC(=O)[C@H](CC(=O)O)NC(C)=O)C(=O)N[C@@H](C)C(=O)N[C@@H](Cc1ccc(O)cc1)C(=O)N[C@H](C(=O)N[C@@H](CCC(=O)O)C(=O)N[C@@H](Cc1ccccc1)C(=O)N[C@@H](CCCCN)C(N)=O)[C@@H](C)CC) [P3V15]”, the KD entry is on record as “No binding”.
Turning to “H-tPNA-Asp-Gly-Lys-Ser-Lys-Gly-Ile-Ala-Tyr-Ile-Glu-Phe-Lys-NH2 ([tPNA]DGKSKGIAYIEFK-NH2; also: N-terminal amino group replaced by hydrogen) [P3V10]”, the dissociation constant Kd is 2.2 µM and 2.24 µM.
Same read-out and setting: the value for DGRSRGIAYIEFK [P3V5] was ~0.86 µM and 0.86 µM.
For “Ac-Asp-Gly-(Orn)-Ser-Lys-Gly-Ile-Ala-Tyr-Ile-Glu-Phe-Lys-NH2 (Ac-DG[Orn]SKGIAYIEFK-NH2) [P3V16]”, the KD result is “No binding”.
Substance “H-aPNA-**-Lys-Ser-Lys-Gly-Ile-Ala-Tyr-Ile-Glu-Phe-Lys-NH2 (H-[aPNA]KSKGIAYIEFK-NH2; not fully specified (residue 1); printed as H-aPNA-**-Lys-Ser-Lys-Gly-Ile-Ala-Tyr-Ile-Glu-Phe-Lys-NH2; also: N-terminal amino group replaced by hydrogen) [P3V25]” came in with a Kd of 8.28 ± 2.27 µM.
For the substance DGKSKGIAAIEFK [P3MT3], the equilibrium dissociation constant (Kd) is 16 µM and 16.6 µM.
Regarding “H-Asp-Gly-Lys-Ser-Lys-Gly-Ile-tPNA-*-Ile-Glu-Phe-Lys-NH2 (H-DGKSKGI[tPNA]IEFK-NH2; not fully specified (residue 8); also: Asp N-terminal amino group replaced by hydrogen) [P3V12]”, binding was put at a Kd of 9.93 ± 2.19 µM.
In turn, DGRSRGIAYIEFK [P3V9] showed a dissociation constant (Kd) of 2.34 ± 0.49 µM.
With DGKSKGIAYIEWK [P3V4], the dissociation constant (Kd) came to 4.44 ± 0.47 µM. This Kd is about 1.9-fold higher than that of the substance before.
Take “DGKSKGIAYIEFKGDGKSKGIAYIEFK [P3V21, linear dimer of P3V8]”: the KD result is on record as “did not show any binding; also recorded: No binding”.
Turning to “H-Asp-Gly-Lys-Ser-Lys-Gly-Ile-Ala-Tyr-Ile-Glu-Phe-Lys-tPNA-NH2 (DGKSKGIAYIEFK[tPNA]-NH2; also: Asp N-terminal amino group replaced by hydrogen) [P3V22]”, the KD entry is “No binding”.
Same read-out and setting: the result for “Ac-Asp-Gly-Lys-Ser-(Dap)-Gly-Ile-Ala-Tyr-Ile-Glu-Phe-Lys-NH2 (Ac-DGKS[Dap]GIAYIEFK-NH2; SMILES CC[C@H](C)[C@H](NC(=O)CNC(=O)[C@H](CN)NC(=O)[C@H](CO)NC(=O)[C@H](CCCCN)NC(=O)CNC(=O)[C@H](CC(=O)O)NC(C)=O)C(=O)N[C@@H](C)C(=O)N[C@@H](Cc1ccc(O)cc1)C(=O)N[C@H](C(=O)N[C@@H](CCC(=O)O)C(=O)N[C@@H](Cc1ccccc1)C(=O)N[C@@H](CCCCN)C(N)=O)[C@@H](C)CC) [P3V19]” reads “No binding”.
DGASKGIAYIEFK [P3MT1] yielded an equilibrium dissociation constant (Kd) of 31.3 ± 8.29 µM.
In turn, “H-cPNA-gPNA-tPNA-Asp-Gly-Lys-Ser-*-Gly-Ile-Ala-Tyr-Ile-Glu-Phe-Lys-NH2 (H-[cPNA][gPNA][tPNA]DGKSGIAYIEFK-NH2; not fully specified (residue 7); printed as H-cPNA-gPNA-tPNA-Asp-Gly-Lys-Ser-*-Gly-Ile-Ala-Tyr-Ile-Glu-Phe-Lys-NH2; also: N-terminal amino group replaced by hydrogen) [P3V13]” yielded a Kd of 10.8 ± 3.08 µM.
As to DGKSKGIAYIEYK [P3V3], the affinity, expressed as Kd, was 1.74 ± 0.67 µM. This Kd is about 6.2-fold lower than that of the substance before.
In the case of “DGKSKGIAYIEFKDGKSKGIAYIEFK [P3V20, linear dimer of P3V8]”, the KD entry is “did not show any binding; also recorded: No binding”.
For “H-Asp-Gly-Lys-Ser-Lys-Gly-Ile-Ala-Tyr-Ile-Glu-Phe-Lys-tPNA-cPNA-gPNA-NH2 (DGKSKGIAYIEFK[tPNA][cPNA][gPNA]-NH2; also: Asp N-terminal amino group replaced by hydrogen) [P3V23]”, the equilibrium dissociation constant (Kd) turned out to be 233 ± 98.9 µM.
On to “H-cptPNA-**-Lys-Ser-Lys-Gly-Ile-Ala-Tyr-Ile-Glu-Phe-Lys-NH2 (H-XKSKGIAYIEFK-NH2; not fully specified (residue 1); printed as H-cptPNA-**-Lys-Ser-Lys-Gly-Ile-Ala-Tyr-Ile-Glu-Phe-Lys-NH2; also: N-terminal amino group replaced by hydrogen) [P3V27]”, for which the dissociation constant (Kd) stood at 11.2 ± 4.37 µM.
Turning to “Ac-Asp-Gly-(hArg)-Ser-Lys-Gly-Ile-Ala-Tyr-Ile-Glu-Phe-Lys-NH2 (Ac-DG[hArg]SKGIAYIEFK-NH2; SMILES CC[C@H](C)[C@H](NC(=O)CNC(=O)[C@H](CCCCN)NC(=O)[C@H](CO)NC(=O)[C@H](CCCCNC(=N)N)NC(=O)CNC(=O)[C@H](CC(=O)O)NC(C)=O)C(=O)N[C@@H](C)C(=O)N[C@@H](Cc1ccc(O)cc1)C(=O)N[C@H](C(=O)N[C@@H](CCC(=O)O)C(=O)N[C@@H](Cc1ccccc1)C(=O)N[C@@H](CCCCN)C(N)=O)[C@@H](C)CC) [P3V14]”, the KD result was “No binding”.
DGKSAGIAYIEFK [P3MT2]: the equilibrium dissociation constant (Kd) is 100 µM and 101 µM.
In the case of “H-tPNA-**-Lys-Ser-Lys-Gly-Ile-Ala-Tyr-Ile-Glu-Phe-Lys-NH2 (H-[tPNA]KSKGIAYIEFK-NH2; not fully specified (residue 1); printed as H-tPNA-**-Lys-Ser-Lys-Gly-Ile-Ala-Tyr-Ile-Glu-Phe-Lys-NH2; also: N-terminal amino group replaced by hydrogen) [P3V11]”, the Kd was found to be 0.12 µM.
Turning to DGKSKGIAWIEFK [P3V2], the Kd was 2.2 µM and 2.21 µM.
As to DGKSKGIAYIEAK [P3MT4], the Kd was 17 µM and 17.4 µM.
Turning to “H-gPNA-**-Lys-Ser-Lys-Gly-Ile-Ala-Tyr-Ile-Glu-Phe-Lys-NH2 (H-[gPNA]KSKGIAYIEFK-NH2; not fully specified (residue 1); printed as H-gPNA-**-Lys-Ser-Lys-Gly-Ile-Ala-Tyr-Ile-Glu-Phe-Lys-NH2; also: N-terminal amino group replaced by hydrogen) [P3V26]”, the dissociation constant (Kd) worked out at 8.85 ± 2.85 µM.

The same test, now with this note: relative to P3.
Consider DGRSRGIAYIEFK [P3V5], for which the “improvement of binding affinity to expanded CAG RNA over P3” value (“improvement of binding affinity … over P3” below) is given as around 10 fold.
In the case of DGKSKGIAYIEWK [P3V4], the “improvement of binding affinity … over P3” value is on record as around 4 fold.
Turning to DGKSKGIAYIEYK [P3V3], the “improvement of binding affinity … over P3” value was around 2 fold.
Still for that read-out and setting: the result for “Asp-(d-Ala)-Lys-Ser-Lys-Gly-Ile-Ala-Tyr-Ile-Glu-Phe-Lys (D[dA]KSKGIAYIEFK) [P3V1]” reads 4 fold.

The subject of a further test is DsRedCAG100 flies. The test is described as follows: Pseudopupil assay in DsRedCAG100 Drosophila (expanded CAG RNA neurodegeneration). It is filed as in vivo. The note with it: 1 μM treatment; 12 day-old flies. The source says:
Here the DsRedCAG0/100Drosophila model was utilized to investigate the suppressive effects of the P3 analogs on RNA toxicity. In this model, the CAG repeat is located in the 3′ untranslated region of the DsRed reporter gene-=. The transcribed expanded CAG RNA is not translated into polyQ protein, and thus the toxicity is solely attributed to the expression of DsRedCAG100 RNA. In brief, the expression of expanded CAG RNA causes severe retinal degeneration in the animal that can be quantified by a pseudopupil assay^7. Inhibitors that can suppress neurotoxicity will result in the recovery of the number of rhabdomeres within the ommatidium. To test the derivatives, third instar larvae were fed different amounts of peptide dissolved in sucrose solution for 2 hr and then allowed to culture in standard fly food until the flies were 12 days old, at which time they were sacrificed for the pseudopupil assay.
Flies were raised at 21.5° C. on cornmeal medium supplemented with dry yeast. Fly lines bearing UAS-DsRedCAG0 and UAS-DsRedCAG100 were kind gifts of Professor Nancy Bonini (University of Pennsylvania, USA). The gmr-GAL4 fly line was obtained from Bloomington Drosophila Stock Center. For pseudopupil assay, third instar larvae were fed with various amount of respective peptides dissolved in 2% sucrose solution for 2 hr and then continued to culture in standard fly food at 21.5° C.^38. Pseudopupil assay was performed on 12 day-old adult flies as mentioned previously^39. Images were captured by SPOT Insight CCD camera controlled by the SPOT Advanced software (Diagnostic instruments Inc.). Image processing was performed using the Adobe Photoshop CS software (Adobe). Each experiment was repeated at least 3 times (n=10 fly heads), and consistent results were obtained. For viability test of wild-type flies from egg to adult stage, eggs born within 5 hr were collected and cultured in fly food containing 10 or 50 μM of respective peptides at 21.5° C. Viability from egg-to-adult was calculated as the number of adult flies collected divided by the number of eggs examined. Each experiment was repeated for three times (at least 130 eggs were examined in each group). Two batches of independently synthesized peptides were used in the experiments.
On to DGRSRGIAYIEFK [P3V5], for which the pseudopupil score was 3.64±0.22.

The test is the same for the next values; noted with them: DsRedCAG100 flies, in words.
Consider DGRSRGIAYIEFK [P3V5], for which the “suppression of neurotoxicity / retinal degeneration” value is “significantly suppressed neurotoxicity”.

These data come from patent US10570177B2, “P3 peptidylic inhibitors for treating CAG-repeat RNA toxicity in polyglutamine diseases” (The Chinese University of Hong Kong, priority 2017, dated 2020).
